# Test results: patent US20090099351A1, “NYLON POLYRIBONUCLEOSIDES” (New York University, priority 2007, published 2009)
# System: Phosphodiesterase II (calf spleen phosphodiesterase, CSP)
# Assay: Phosphodiesterase II (CSP) controlled exonuclease digestion monitored by MALDI-TOF MS
# Assay type: in vitro ADME
# Settings: 37° C.; for time for CSP digestion to reach the modified nucleotides: 5′-3′ exonuclease; for degradation of the remaining modified fragment by CSP: after 4 h, fragment starting at modified nucleotides
# Method: Phosphodiesterase II controlled digestion for ODNs sequencing. The controlled digestion procedure followed slight modification of the reported protocol (Chou et al., 2000). ODN ([…] in 5 μL water) was mixed with phosphodiesterase II (calf spleen phosphodiesterase, CSP) solution (5 milliunits in 5 μL water) and ammonium citrate water solution (1 μL, 50 g/L). After vortex mixing and centrifuge, the mixture was incubated at 37° C. Aliquots (1 μL) were removed after 0.5, 2, 4, 9, 15, 20, 30, 40, 60, 240 min and quickly mixed with trihydroxyacetophenone (THAP, as MALDI-TOF matrix) solution (1 μL, 30 mg in 1 mL methanol) before being placed in dry ice to quench the reaction. All digestion aliquots were spotted on a target and analyzed by MALDI-TOF MS.
# To locate the modified regions of nylon nucleic acid, controlled exonuclease digestion was performed on the template-synthesized nylon nucleic acid 3b and 8b with DNA 1 as a control, and monitored as a function of time. Phosphodiesterase II (calf spleen phosphodiesterase, CSP) served as the exonuclease, cleaving from the 5′-terminus. […] In 2 min, the digestion of 3b reached modified nucleotides UnUc. It took 4 min for the digestion of 8b to move to the modified region. […] It has been reported that CSP is inhibited by sugar-modified nucleotides (Pieles et al., 1993) and not by base-modified nucleotides, so these CSP digestion results are consistent with the 2′-ribose modification present in nylon nucleic acids. Furthermore, the sequence information about modified nucleotides from the 5′-end within nylon nucleic acids were also verified.
time for CSP digestion to reach the modified nucleotides [min],degradation of the remaining modified fragment by CSP,Substance,DNA fragments remaining after CSP digestion (in 1 h)
4,no degradation was detected,5′-GCATAGUcUnnUccUnnUccUnGTCTAC [8b],–
2,no degradation was detected,5′-GCATAGTTUnUcTTGTCTAC [3b],–
–,–,"5′-GCATAGTTTTTTGTCTAC (DNA, backbone and methylation of C not given here) [DNA 1, reference compound]",no DNA fragments longer than trimer were detected
